Test results published in article PMC8219027, “A small-molecule inhibitor of the BRCA2-RAD51 interaction modulates RAD51 assembly and potentiates DNA damage-induced cell death” (Cell Chemical Biology, 2021).
Read-outs that look alike come from different tables or passages of the source.

Experiments:
[1] = system: HCT116 cells (BRCA2 wild-type); assay: SRB growth inhibition assay, combination of CAM833 and PARP1 inhibitor AZD2461; type: cell-based, human; details: HCT116, fixed dose 0.1 μM or 1 μM, 96 h
Method: (§1) Adherent cell lines (HCT116 and A549 cells) were seeded into flat-bottomed tissue culture 96-well plates in a volume of 150 μL of growth medium. HCT116 cells were seeded at 750 cells per well and A549 cells were seeded at 1000 cells per well. After 24 hours, compounds dissolved in DMSO were diluted in growth medium and were added to cells such that the final DMSO concentration was 1% (v/v) and the final volume in the well was 200 μL. Cells were then incubated in the presence of compound for 96 hours before fixation.
(§2) Medium was removed from cells and 100 μL of cold 1% (v/v) trichloroacetic acid was added for 30 minutes at 4 degrees. The plates were washed three times in tap water and left to dry at room temperature. The fixed cells were stained in a 0.057% sulphorodamine B/1% acetic acid solution (w/v) and incubated at room temperature with agitation for 30 minutes after which the dye was removed and the plates washed in 1% (v/v) acetic acid and left to dry. The dye was then solubilised in 10 mM Tris solution (pH8) and incubated for 30 minutes under agitation. The plates were then read on a PHERAstar plus plate reader (BMG Labtech) using the fluorescence intensity module (540-590 nm). Growth inhibition was calculated relative to DMSO controls and GI50 values were calculated using Graphpad Prism.
For the PARP inhibitor experiments, the SRB method was used as described above to measure growth inhibition with the exception that cells were seeded into 150 μl medium and then a combination of either 25 μl of CAM833, AZD2461 (SelleckChem; #S7029) or DMSO was added to give a total volume of 200 ul in the well.

HCT116 cells = assay: SRB growth inhibition assay; type: cell-based, human; details: SRB 96 h, Figure 6D (cell line not given)
Method: as §1, §2

HumRadA2 [2] = molecular target: T1, HumRadA2 (Pyrococcus furiosus, UniProt O74036, D220A/E219S/I169M/K221M/V202Y/Y201A); assay: Isothermal titration calorimetry (ITC) against HumRadA2; type: binding, Pyrococcus furiosus (humanised RadA)
Method: ITC was performed using a Microcal iTC200 instrument at 25°C. Experiments typically involved titrating a 10-fold excess of ligand in the injection syringe against the protein ([HumRadA2] = 60 μM or [ChimRAD51] = 20 μM) in either 200 mM Tris buffer at pH 7.5 and 100 mM NaCl (HumRadA2) or 20 mM potassium phosphate at pH 8.0 and 192 mM KCl (ChimRAD51). Titrations were typically performed with 5-10% DMSO and care was taken to ensure that the DMSO concentrations in the protein and ligand solutions were well matched. The raw ITC data were fitted using a single-site binding model in Microcal ITC LLC data analysis program in the Origin 7.0 package to derive the dissociation constant, stoichiometry and ΔH of binding. […]

Aqueous solubility = details: for profiling in cell-based assays
HumRadA2 [3] = molecular target: T1, HumRadA2; details: ref Scott et al., 2016; read-out: Kd against HumRadA2 by ITC; cited from earlier work
ChimRAD51 [4] = molecular target: ChimRAD51; set-up: method as in Moschetti et al., 2016; details: ref Moschetti et al., 2016; read-out: Kd of binding to ChimRAD51 by ITC; cited from earlier work
ChimRAD51 [5] = molecular target: ChimRAD51; set-up: method as in Moschetti et al., 2016; details: direct binding of BRC4 peptide; ref Moschetti et al., 2016; read-out: Kd of binding to ChimRAD51 by FP; cited from earlier work
[6] = molecular target: ChimRAD51 (chimeric RAD51/RadA protein) (Pyrococcus furiosus | human); assay: fluorescence polarisation; competition: 10 nM Alexa Fluor 488-labelled BRC4 peptide and 50 nM ChimRAD51 (about 80-90% saturation), increasing concentration of competitor; isotherms fitted with the expression of Wang (1995)

## COC1CCN(C(=O)c2cc(Cc3n[nH]c(=O)c4ccccc34)ccc2F)CC1 [AZD2461, reference compound]
[1]
  growth inhibition by AZD2461 alone (in words): little effect

## N.N.O=C([O-])C1(C(=O)[O-])CCC1.[Pt+2] [Carboplatin, reference compound]
HCT116 cells; 0 Gy IR
  IC50: 9.9 µM
HCT116 cells; 1 Gy IR
  IC50: 9 µM
HCT116 cells; 2 Gy IR
  IC50: 10.6 µM
HCT116 cells; 3 Gy IR
  IC50: 11.1 µM

## Nc1cc2ccccc2cc1C(=O)O [Compound 3, 3-amino-2-naphthoic acid]
HumRadA2 [2]
  Kd: 1300 µM

## C[C@H](NC(=O)[C@@H]1CCCN1C(=O)[C@H](Cc1c[nH]cn1)NC(=O)c1cc2ccccc2cc1N)C(N)=O [Compound 4]
HumRadA2 [2]
  Kd: 3 µM

## C[C@H](NC(=O)c1ccc2ccccc2c1)C(=O)N1CCC[C@H]1C(=O)N[C@@H](C)c1ccccc1 [Compound 5, (S)-1-((2-Naphthoyl)-L-alanyl)-N-((S)-1-phenylethyl)pyrrolidine-2-carboxamide]
HumRadA2 [2]
  Kd: 0.22 µM
Aqueous solubility
  solubility in aqueous media (in words): too insoluble

## Ac-FHTA-NH2 [Compound 1]
HumRadA2 [3]
  Kd: 280 µM

## BRC4 peptide: BRC4 repeat peptide of BRCA2 (CKEPTLLGFHTASGKKVKIAKESLDKVKNLFDEKEQ; Alexa Fluor 488 (maleimide dye) on the additional N-terminal cysteine)
ChimRAD51 [4]
  Kd: 0.006 µM
ChimRAD51 [5]
  Kd: 0.004 µM

## N-terminal "FxxA" half of the BRC4 repeat (FxxA half-peptide)
[6]
  Kd: 36 µM
